Laboratory results reported in ChEMBL document CHEMBL1127278, “N-chloromethyl quinuclidinium derivatives: A new class of irreversible ligands for 5-HT3 receptors” (Bioorg Med Chem Lett, 1994).

Target: T1, Serotonin 3 (5-HT3) receptor (Rattus norvegicus, UniProt P35563+Q9JJ16)
T1 sequence (P35563 whole entry): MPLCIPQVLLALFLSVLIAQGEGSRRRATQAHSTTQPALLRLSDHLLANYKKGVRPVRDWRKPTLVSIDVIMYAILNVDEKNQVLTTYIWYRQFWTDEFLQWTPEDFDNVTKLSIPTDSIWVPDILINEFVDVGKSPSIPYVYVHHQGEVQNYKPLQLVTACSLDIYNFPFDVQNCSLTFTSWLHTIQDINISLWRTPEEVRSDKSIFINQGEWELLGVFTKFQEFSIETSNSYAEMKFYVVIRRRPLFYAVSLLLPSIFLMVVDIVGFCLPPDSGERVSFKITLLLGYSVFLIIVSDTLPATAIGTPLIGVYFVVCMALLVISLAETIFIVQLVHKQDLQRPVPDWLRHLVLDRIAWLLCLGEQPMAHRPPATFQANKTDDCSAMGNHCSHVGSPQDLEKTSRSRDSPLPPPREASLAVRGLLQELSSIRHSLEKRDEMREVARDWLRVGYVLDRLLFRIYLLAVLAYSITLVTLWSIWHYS
T1 sequence (Q9JJ16 whole entry): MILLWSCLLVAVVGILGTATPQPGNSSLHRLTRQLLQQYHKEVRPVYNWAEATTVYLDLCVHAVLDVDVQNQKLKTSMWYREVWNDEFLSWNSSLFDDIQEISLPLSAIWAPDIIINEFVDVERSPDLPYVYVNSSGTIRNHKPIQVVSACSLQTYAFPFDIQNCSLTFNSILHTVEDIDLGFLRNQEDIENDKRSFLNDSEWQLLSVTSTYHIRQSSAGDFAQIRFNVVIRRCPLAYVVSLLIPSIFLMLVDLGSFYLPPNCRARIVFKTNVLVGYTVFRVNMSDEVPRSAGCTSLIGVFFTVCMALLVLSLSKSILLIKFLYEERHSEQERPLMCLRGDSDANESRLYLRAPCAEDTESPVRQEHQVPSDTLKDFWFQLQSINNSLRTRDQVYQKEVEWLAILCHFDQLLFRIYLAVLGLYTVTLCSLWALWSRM
Experiment: Binding affinity to 5-hydroxytryptamine 3 receptor in rat entorhinal cortex using [3H]-BRL 43694 as radioligand

SMILES | Ki
Nc1ccc2c3c(cccc13)C(=O)N([C@@H]1C[N+]3(CCl)CCC1CC3)C2=O | 328 nM
COc1cc(N)c(Cl)cc1C(=O)N[C@@H]1C[N+]2(CCl)CCC1CC2 | 14.8 nM
Nc1ccc2c3c(cccc13)C(=O)N([C@H]1C[N+]3(CCl)CCC1CC3)C2=O | 0.35 nM
COc1cc(N)c(Cl)cc1C(=O)N[C@H]1C[N+]2(CCl)CCC1CC2 | 20.1 nM
